In the NIST ThermoML archive (doi:10.1021/acs.jced.8b00153):
Values joined by “and” are separate entries in the source; they are usually repeats but may differ in a detail not shown here. Identical values can stand only once. Numbers after ± are expanded uncertainties.

Details: for surface tension liquid-gas: Drop volume; for viscosity / speed of sound / mass density / vapor or sublimation pressure: Liquid; for viscosity: Capillary tube (Ostwald / Ubbelohde) method; for speed of sound: Frequency=3 MHz, Single path-length method; for mass density: Vibrating tube method; for vapor or sublimation pressure: Ebulliometric method (Recirculating still)

CCc1cccs1 [2-ethylthiophene]
surface tension liquid-gas (278.15 K): 32.36 ± 0.3 mN/m
viscosity (278.15 K, 100 kPa): 0.9347 ± 0.0087 mPa·s
speed of sound (278.15 K, 100 kPa): 1373.2 ± 1.1 m/s
mass density (278.15 K, 100 kPa): 1008.35 ± 0.54 kg/m3
surface tension liquid-gas (280.65 K): 32.11 ± 0.3 mN/m
viscosity (280.65 K, 100 kPa): 0.905 ± 0.0085 mPa·s
speed of sound (280.65 K, 100 kPa): 1363.4 ± 1.1 m/s
mass density (280.65 K, 100 kPa): 1005.86 ± 0.54 kg/m3
surface tension liquid-gas (283.15 K): 31.8 ± 0.3 mN/m
viscosity (283.15 K, 100 kPa): 0.8766 ± 0.0083 mPa·s
speed of sound (283.15 K, 100 kPa): 1354.2 ± 1.1 m/s
mass density (283.15 K, 100 kPa): 1003.44 ± 0.54 kg/m3 and 1003.37 ± 0.54 kg/m3
mass density (283.15 K, 2000 kPa): 1004.84 ± 0.54 kg/m3
mass density (283.15 K, 5000 kPa): 1007 ± 0.54 kg/m3
mass density (283.15 K, 7000 kPa): 1008.42 ± 0.55 kg/m3
mass density (283.15 K, 10000 kPa): 1010.51 ± 0.55 kg/m3
mass density (283.15 K, 15000 kPa): 1013.9 ± 0.55 kg/m3
mass density (283.15 K, 20000 kPa): 1017.18 ± 0.55 kg/m3
mass density (283.15 K, 25000 kPa): 1020.37 ± 0.56 kg/m3
mass density (283.15 K, 30000 kPa): 1023.45 ± 0.56 kg/m3
mass density (283.15 K, 35000 kPa): 1026.45 ± 0.56 kg/m3
mass density (283.15 K, 40000 kPa): 1029.36 ± 0.57 kg/m3
mass density (283.15 K, 45000 kPa): 1032.2 ± 0.57 kg/m3
mass density (283.15 K, 50000 kPa): 1034.96 ± 0.58 kg/m3
mass density (283.15 K, 55000 kPa): 1037.65 ± 0.59 kg/m3
mass density (283.15 K, 60000 kPa): 1040.28 ± 0.6 kg/m3
mass density (283.15 K, 65000 kPa): 1042.84 ± 0.6 kg/m3
surface tension liquid-gas (285.65 K): 31.55 ± 0.3 mN/m
viscosity (285.65 K, 100 kPa): 0.8498 ± 0.0082 mPa·s
speed of sound (285.65 K, 100 kPa): 1344.7 ± 1.1 m/s
mass density (285.65 K, 100 kPa): 1000.87 ± 0.54 kg/m3
surface tension liquid-gas (288.15 K): 31.24 ± 0.29 mN/m
viscosity (288.15 K, 100 kPa): 0.8244 ± 0.008 mPa·s
speed of sound (288.15 K, 100 kPa): 1334.1 ± 1.1 m/s
mass density (288.15 K, 100 kPa): 998.47 ± 0.54 kg/m3 and 998.38 ± 0.54 kg/m3
mass density (288.15 K, 2000 kPa): 999.91 ± 0.54 kg/m3
mass density (288.15 K, 5000 kPa): 1002.13 ± 0.54 kg/m3
mass density (288.15 K, 7000 kPa): 1003.59 ± 0.54 kg/m3
mass density (288.15 K, 10000 kPa): 1005.73 ± 0.54 kg/m3
mass density (288.15 K, 15000 kPa): 1009.2 ± 0.55 kg/m3
mass density (288.15 K, 20000 kPa): 1012.57 ± 0.55 kg/m3
mass density (288.15 K, 25000 kPa): 1015.82 ± 0.55 kg/m3
mass density (288.15 K, 30000 kPa): 1018.97 ± 0.56 kg/m3
mass density (288.15 K, 35000 kPa): 1022.04 ± 0.56 kg/m3
mass density (288.15 K, 40000 kPa): 1025.03 ± 0.56 kg/m3
mass density (288.15 K, 45000 kPa): 1027.9 ± 0.57 kg/m3
mass density (288.15 K, 50000 kPa): 1030.72 ± 0.58 kg/m3
mass density (288.15 K, 55000 kPa): 1033.47 ± 0.58 kg/m3
mass density (288.15 K, 60000 kPa): 1036.14 ± 0.59 kg/m3
mass density (288.15 K, 65000 kPa): 1038.73 ± 0.6 kg/m3
surface tension liquid-gas (290.65 K): 30.98 ± 0.29 mN/m
viscosity (290.65 K, 100 kPa): 0.8003 ± 0.0079 mPa·s
speed of sound (290.65 K, 100 kPa): 1325 ± 1.1 m/s
mass density (290.65 K, 100 kPa): 995.88 ± 0.54 kg/m3
vapor or sublimation pressure (292.41 K): 0.8 ± 0.1 kPa
surface tension liquid-gas (293.15 K): 30.66 ± 0.29 mN/m
viscosity (293.15 K, 100 kPa): 0.7772 ± 0.0078 mPa·s
speed of sound (293.15 K, 100 kPa): 1315.3 ± 1.1 m/s
mass density (293.15 K, 100 kPa): 993.45 ± 0.54 kg/m3 and 993.38 ± 0.54 kg/m3
mass density (293.15 K, 2000 kPa): 994.92 ± 0.54 kg/m3
mass density (293.15 K, 5000 kPa): 997.2 ± 0.54 kg/m3
mass density (293.15 K, 7000 kPa): 998.7 ± 0.54 kg/m3
mass density (293.15 K, 10000 kPa): 1000.9 ± 0.54 kg/m3
mass density (293.15 K, 15000 kPa): 1004.46 ± 0.54 kg/m3
mass density (293.15 K, 20000 kPa): 1007.92 ± 0.55 kg/m3
mass density (293.15 K, 25000 kPa): 1011.25 ± 0.55 kg/m3
mass density (293.15 K, 30000 kPa): 1014.49 ± 0.55 kg/m3
mass density (293.15 K, 35000 kPa): 1017.62 ± 0.56 kg/m3
mass density (293.15 K, 40000 kPa): 1020.67 ± 0.56 kg/m3
mass density (293.15 K, 45000 kPa): 1023.61 ± 0.57 kg/m3
mass density (293.15 K, 50000 kPa): 1026.49 ± 0.57 kg/m3
mass density (293.15 K, 55000 kPa): 1029.29 ± 0.58 kg/m3
mass density (293.15 K, 60000 kPa): 1032.01 ± 0.58 kg/m3
mass density (293.15 K, 65000 kPa): 1034.65 ± 0.59 kg/m3
vapor or sublimation pressure (293.45 K): 0.84 ± 0.1 kPa
surface tension liquid-gas (295.65 K): 30.44 ± 0.29 mN/m
viscosity (295.65 K, 100 kPa): 0.7554 ± 0.0077 mPa·s
speed of sound (295.65 K, 100 kPa): 1305.8 ± 1.1 m/s
mass density (295.65 K, 100 kPa): 990.88 ± 0.54 kg/m3
vapor or sublimation pressure (296.81 K): 1.03 ± 0.1 kPa
vapor or sublimation pressure (298.04 K): 1.145 ± 0.1 kPa
surface tension liquid-gas (298.15 K): 30.1 ± 0.29 mN/m
viscosity (298.15 K, 100 kPa): 0.7345 ± 0.0076 mPa·s
speed of sound (298.15 K, 100 kPa): 1295.8 ± 1.1 m/s
mass density (298.15 K, 100 kPa): 988.39 ± 0.54 kg/m3 and 988.37 ± 0.54 kg/m3
mass density (298.15 K, 2000 kPa): 989.91 ± 0.54 kg/m3
mass density (298.15 K, 5000 kPa): 992.26 ± 0.54 kg/m3
mass density (298.15 K, 7000 kPa): 993.8 ± 0.54 kg/m3
mass density (298.15 K, 10000 kPa): 996.05 ± 0.54 kg/m3
mass density (298.15 K, 15000 kPa): 999.7 ± 0.54 kg/m3
mass density (298.15 K, 20000 kPa): 1003.24 ± 0.54 kg/m3
mass density (298.15 K, 25000 kPa): 1006.67 ± 0.55 kg/m3
mass density (298.15 K, 30000 kPa): 1009.97 ± 0.55 kg/m3
mass density (298.15 K, 35000 kPa): 1013.18 ± 0.55 kg/m3
mass density (298.15 K, 40000 kPa): 1016.3 ± 0.56 kg/m3
mass density (298.15 K, 45000 kPa): 1019.31 ± 0.56 kg/m3
mass density (298.15 K, 50000 kPa): 1022.24 ± 0.57 kg/m3
mass density (298.15 K, 55000 kPa): 1025.1 ± 0.57 kg/m3
mass density (298.15 K, 60000 kPa): 1027.87 ± 0.58 kg/m3
mass density (298.15 K, 65000 kPa): 1030.59 ± 0.58 kg/m3
vapor or sublimation pressure (299.11 K): 1.23 ± 0.1 kPa
surface tension liquid-gas (300.65 K): 29.86 ± 0.29 mN/m
viscosity (300.65 K, 100 kPa): 0.7148 ± 0.0075 mPa·s
speed of sound (300.65 K, 100 kPa): 1285.4 ± 1.1 m/s
mass density (300.65 K, 100 kPa): 985.87 ± 0.54 kg/m3
vapor or sublimation pressure (302.95 K): 1.52 ± 0.1 kPa
surface tension liquid-gas (303.15 K): 29.54 ± 0.29 mN/m
viscosity (303.15 K, 100 kPa): 0.696 ± 0.0074 mPa·s
speed of sound (303.15 K, 100 kPa): 1276.5 ± 1.1 m/s
mass density (303.15 K, 100 kPa): 983.42 ± 0.54 kg/m3 and 983.36 ± 0.54 kg/m3
mass density (303.15 K, 2000 kPa): 984.97 ± 0.54 kg/m3
mass density (303.15 K, 5000 kPa): 987.39 ± 0.54 kg/m3
mass density (303.15 K, 7000 kPa): 988.98 ± 0.54 kg/m3
mass density (303.15 K, 10000 kPa): 991.3 ± 0.54 kg/m3
mass density (303.15 K, 15000 kPa): 995.04 ± 0.54 kg/m3
mass density (303.15 K, 20000 kPa): 998.67 ± 0.54 kg/m3
mass density (303.15 K, 25000 kPa): 1002.17 ± 0.54 kg/m3
mass density (303.15 K, 30000 kPa): 1005.54 ± 0.55 kg/m3
mass density (303.15 K, 35000 kPa): 1008.81 ± 0.55 kg/m3
mass density (303.15 K, 40000 kPa): 1012 ± 0.55 kg/m3
mass density (303.15 K, 45000 kPa): 1015.07 ± 0.56 kg/m3
mass density (303.15 K, 50000 kPa): 1018.07 ± 0.56 kg/m3
mass density (303.15 K, 55000 kPa): 1020.99 ± 0.57 kg/m3
mass density (303.15 K, 60000 kPa): 1023.81 ± 0.57 kg/m3
mass density (303.15 K, 65000 kPa): 1026.56 ± 0.58 kg/m3
surface tension liquid-gas (305.65 K): 29.3 ± 0.29 mN/m
viscosity (305.65 K, 100 kPa): 0.678 ± 0.0073 mPa·s
speed of sound (305.65 K, 100 kPa): 1266.7 ± 1.1 m/s
mass density (305.65 K, 100 kPa): 980.85 ± 0.54 kg/m3
vapor or sublimation pressure (308.07 K): 2.005 ± 0.1 kPa
surface tension liquid-gas (308.15 K): 28.96 ± 0.29 mN/m
viscosity (308.15 K, 100 kPa): 0.6606 ± 0.0072 mPa·s
speed of sound (308.15 K, 100 kPa): 1256.8 ± 1.1 m/s
mass density (308.15 K, 100 kPa): 978.38 ± 0.54 kg/m3 and 978.33 ± 0.54 kg/m3
mass density (308.15 K, 2000 kPa): 979.99 ± 0.54 kg/m3
mass density (308.15 K, 5000 kPa): 982.48 ± 0.54 kg/m3
mass density (308.15 K, 7000 kPa): 984.11 ± 0.54 kg/m3
mass density (308.15 K, 10000 kPa): 986.49 ± 0.54 kg/m3
mass density (308.15 K, 15000 kPa): 990.33 ± 0.54 kg/m3
mass density (308.15 K, 20000 kPa): 994.05 ± 0.54 kg/m3
mass density (308.15 K, 25000 kPa): 997.63 ± 0.54 kg/m3
mass density (308.15 K, 30000 kPa): 1001.09 ± 0.54 kg/m3
mass density (308.15 K, 35000 kPa): 1004.45 ± 0.55 kg/m3
mass density (308.15 K, 40000 kPa): 1007.68 ± 0.55 kg/m3
mass density (308.15 K, 45000 kPa): 1010.84 ± 0.55 kg/m3
mass density (308.15 K, 50000 kPa): 1013.88 ± 0.56 kg/m3
mass density (308.15 K, 55000 kPa): 1016.86 ± 0.56 kg/m3
mass density (308.15 K, 60000 kPa): 1019.74 ± 0.57 kg/m3
mass density (308.15 K, 65000 kPa): 1022.56 ± 0.57 kg/m3
surface tension liquid-gas (310.65 K): 28.73 ± 0.28 mN/m
viscosity (310.65 K, 100 kPa): 0.6442 ± 0.0071 mPa·s
speed of sound (310.65 K, 100 kPa): 1246.5 ± 1.1 m/s
mass density (310.65 K, 100 kPa): 975.82 ± 0.54 kg/m3
vapor or sublimation pressure (312.28 K): 2.55 ± 0.1 kPa
surface tension liquid-gas (313.15 K): 28.41 ± 0.28 mN/m
viscosity (313.15 K, 100 kPa): 0.6282 ± 0.007 mPa·s
